The record followed here is patent US11969425B2, “Inhibitor of indoleamine-2,3-dioxygenase (IDO)” (InventisBio LLC, priority 2016, dated 2024).

Data set [1] concerns kynurenine production in HeLa cells. The data set can be described thus: Inhibition of kynurenine production in HeLa cells. Format: cell-based, human. The settings on record: Homo sapiens, HeLa, 48 h, HeLa cells, human IFN-γ 50 ng/mL, kynurenine read at 480 nm, read-out: IC50. On the procedure: The effect of compounds described herein on the inhibition of kynurenine production in HeLa cells (derived from human cervical cancer) was determined. HeLa cells were seeded into a 96-well culture plate at a density of 5×10^3 per well in RPMI1640/phenol red free media (from GIBCO) with 2 mM L-glutamine and 10% fetal bovine serum (FBS, from GIBCO) and grown overnight in a 37° C. incubator with 5% CO2. Twenty-four hours later, human IFN-γ (from GIBCO) (final concentration 50 ng/mL) and test compound solutions (serially diluted to different wells) were added to each well with a final volume of 200 uL per well. Forty-eight hours after incubation with compounds, 140 uL supernatant was taken from each well and was transferred to a new 96-well plate. Ten microliters of 6.1 N trichloroacetic acid were added into each well, mixed and incubated at 50° C. for 30 minutes. The reaction mixture was then centrifuged for 10 minutes at 2500 rpm and 100 uL of the supernatant per well was transferred to another 96 well plate and mixed with 100 uL of 2% (w/v) p-dimethylaminobenzaldehyde in acetic acid. The yellow color derived from kynurenine was measured at 480 nm using a SPECTRAmax i3 reader. Each compound concentration was done in triplicates and compound IC50 value was calculated using nonlinear regression using Graphpad Prism 5.0.
The inhibitory activity of representative compounds described herein, compared with another IDO inhibitor, such as INCB-24360, Controls 1 and 2 are shown in Table 2.

Data set [2] deals with pooled human hepatocytes. In words: Human hepatocyte clearance study. Format: in vitro ADME. The following applies: pooled human hepatocytes, 120 min. As to the method: (§1) The in vitro human hepatocyte clearance of compounds described here was studied using pooled human hepatocytes purchased from BioreclamationIVT (Westbury, NY, Cat #X008001, Lot #TQJ). The assay was conducted according to manufacture's instruction. Briefly, 10 mM stock solutions of test compounds and positive control (Verapamil) were prepared in 100% DMSO. Thawing media (50 mL) used in the study consists of: 31 mLWilliams E medium (GIBCO Cat #12551-032); 15 mL isotonic percoll (GE Healthcare Cat #17-0891-09); 500 uL 100XGlutaMax (GIBCO Cat #35050); 750 uL HEPES (GIBCO Cat #15630-080); 2.5 mL FBS (Corning Cat #35-076*CVR); 50 uL human insulin (GIBCO Cat #12585-014) and 5 uL dexamethasone (NICPBP). Incubation media is made of Williams E medium supplemented with 1xGlutaMax. Both thawing medium and incubation medium (serum-free) were placed in a 37° C. water bath for at least 15 minutes prior to use. Compound stock solutions were diluted to 100 μM by combining 198 μL of 50% acetonitrile/50% water and 2 μL of 10 mM stock solution. Verapamil was use as positive control in the assay. Vials of cryopreserved hepatocytes were removed from storage and thawed in a 37° C. water bath with gentle shaking. Contents of the vial were poured into the 50 mL thawing medium conical tube. Vials were centrifuged at 100 g for 10 minutes at room temperature. Thawing medium was aspirated and hepatocytes were re-suspended with serum-free incubation medium to yield ˜1.5×10^6 cells/mL. Hepatocyte viability and density were counted using a Trypan Blue exclusion, and then cells were diluted with serum-free incubation medium to a working cell density of 0.5×10^6 viable cells/mL. Then, a portion of the hepatocytes at 0.5×10^6 viable cells/mL was boiled for 5 minutes prior to adding to the plate as negative control to eliminate the enzymatic activity so that little or no substrate turnover should be observed. The boiled hepatocytes were used to prepare negative samples. Aliquots of 198 μL hepatocytes were dispensed into each well of a 96-well non-coated plate. The plate was placed in the incubator on an orbital shaker at 500 rpm for approximately 10 minutes. Aliquots of 2 μL of the 100 μM test compound or positive control were added into respective wells of the non-coated 96-well plate to start the reaction. This assay was performed in duplicate. The plate was incubated in the incubator on an orbital shaker at 500 rpm for the designated time points. Twenty-five microliter of contents were transferred and mixed with 6 volumes (150 μL) of cold acetonitrile with IS (200 nM imipramine, 200 nM labetalol and 200 nM diclofenac) to terminate the reaction at time points of 0, 15, 30, 60, 90 and 120 minutes. Samples were centrifuged at 3,220 g for 25 minutes and aliquots of 150 μL of the supernatants were used for LC-MS/MS analysis. For data analysis, all calculations were carried out using Microsoft Excel. Peak areas were determined from extracted ion chromatograms. The in vitro half-life (t1/2) of parent compound was determined by regression analysis of the percent parent disappearance vs. time curve. The in vitro half-life (in vitro t1/2) was determined from the slope value: in vitro t1/2=0.693/k. […] Scaling factors for in vivo intrinsic clearance prediction using human hepatocytes are listed as: liver weight (g liver/kg body weight): 25.7; hepatocyte concentration (10^6 cells/g liver): 99; scaling factor: 2544.3.

The nature of data set [3]: Human hepatocyte clearance study. The following applies: pooled cryopreserved human hepatocytes (suspension); for CLint scaled at 1 µM: human, scaled up from in vitro t1/2, scaling factor 2544.3, read-out: Human Scale-up Clint; for hepatocyte CLint at 1 µM / half-life at 1 µM: pooled human hepatocytes; for hepatocyte CLint at 1 µM: read-out: Human In vitro Clint (μL/min/10^6 cells); for half-life at 1 µM: read-out: Human In vitro T1/2. Format: in vitro ADME. As to the method: as §1

For orientation: IC50 means the midpoint of a concentration-inhibition curve. `CC(C)CN(CC(C)C)c1ccc(C2(C(=O)O)CCC2)cc1NC(=O)Nc1ccc(F)cc1F` [Compound 16]: in data set [1], the IC50 was found to be 1500 pM. Moreover, the “Human Hepatocyte Remaining Percentage @ 120 min” value in data set [2] is given as 101. Moreover, in data set [3], the CLint scaled at 1 µM came out at 1.8 mL/min/kg, the hepatocyte CLint at 1 µM stood at 0.7 µL/min/1e6 cells and the half-life at 1 µM was found to be 31.4 h.

As for `CC(C)CN(c1ccc(C2(C(=O)O)CCC2)cc1NC(=O)Nc1ccc(F)cc1F)C1CCOCC1` [Compound 25], the IC50 in data set [1] was 600 pM. Moreover, the “Human Hepatocyte Remaining Percentage @ 120 min” value in data set [2] is recorded as 89. In data set [3], the CLint scaled at 1 µM came out at 3.9 mL/min/kg, the hepatocyte CLint at 1 µM came out at 1.5 µL/min/1e6 cells and the half-life at 1 µM is 15 h.

Take `CC(C)CN(CC(C)C)c1ccc(C2(C(=O)O)CCCC2)cc1Nc1ccccc1` [Compound 48]: the IC50 in data set [1] came out at 8400 pM. Moreover, in data set [2], the “Human Hepatocyte Remaining Percentage @ 120 min” value was 105. Also, in data set [3], the CLint scaled at 1 µM is 2 mL/min/kg, the hepatocyte CLint at 1 µM stood at 0.8 µL/min/1e6 cells and the half-life at 1 µM came out at 28.9 h.

In the case of `CCOc1ncc(Nc2cc(C3(C(=O)O)CCC3)ccc2N(CC(C)C)C2CCOCC2)cn1` [Compound 75], the IC50 in data set [1] turned out to be 300 pM. The “Human Hepatocyte Remaining Percentage @ 120 min” value in data set [2] came to 88. Moreover, in data set [3], the CLint scaled at 1 µM is 6.6 mL/min/kg, the hepatocyte CLint at 1 µM came to 2.6 µL/min/1e6 cells and the half-life at 1 µM turned out to be 8.9 h.

`CC(C)CN(CC(C)C)c1ncc(C2(C(=O)O)CCC2)cc1Nc1ccc(Cl)cc1` [Compound 84]: in data set [1], the IC50 came out at 400 pM. Also, the “Human Hepatocyte Remaining Percentage @ 120 min” value in data set [2] is recorded as 80. Moreover, in data set [3], the CLint scaled at 1 µM was determined as 5.7 mL/min/kg, the hepatocyte CLint at 1 µM stood at 2.2 µL/min/1e6 cells and the half-life at 1 µM came out at 10.4 h.

Turning to `CC(C)CN(c1ccc(C2(C(=O)O)CCC2)cc1Nc1ccc(C#N)cn1)C1CCOCC1` [Compound 86], the IC50 in data set [1] worked out at 300 pM. The “Human Hepatocyte Remaining Percentage @ 120 min” value in data set [2] worked out at 75. Moreover, in data set [3], the CLint scaled at 1 µM came to 13 mL/min/kg, the hepatocyte CLint at 1 µM is 5.2 µL/min/1e6 cells and the half-life at 1 µM is 4.47 h.

With `CC(C)CN(c1ncc(C2(C(=O)O)CCC2)cc1Nc1ccc(C#N)cc1)C1CCOCC1` [Compound 91], the IC50 in data set [1] is 300 pM. Further, the “Human Hepatocyte Remaining Percentage @ 120 min” value in data set [2] came to 92. In data set [3], the CLint scaled at 1 µM is 3.3 mL/min/kg, the hepatocyte CLint at 1 µM came out at 1.3 µL/min/1e6 cells and the half-life at 1 µM was 17.7 h.

As for `CC(C)CN(CC(C)C)c1ccc(C2(C(=O)O)CCC2)cc1Nc1ccc(Cl)cn1` [Compound 105], the 50% inhibitory concentration (IC50) in data set [1] is 300 pM. The “Human Hepatocyte Remaining Percentage @ 120 min” value in data set [2] is reported as 81. For the same compound, in data set [3], the CLint scaled at 1 µM was 13 mL/min/kg, the hepatocyte CLint at 1 µM was determined as 5.1 µL/min/1e6 cells and the half-life at 1 µM was 4.58 h.

Consider `CC(C)CN(CC(C)C)c1ncc(C2(C(=O)O)CCC2)cc1Nc1ccc(C#N)cn1` [Compound 106], for which the IC50 in data set [1] was found to be 400 pM. For the same compound, in data set [2], the “Human Hepatocyte Remaining Percentage @ 120 min” value is recorded as 69. Besides, in data set [3], the CLint scaled at 1 µM was 18 mL/min/kg, the hepatocyte CLint at 1 µM stood at 7 µL/min/1e6 cells and the half-life at 1 µM came out at 3.3 h.

For the compound `CC(C)CN(CC(C)C)c1ncc(C2(C(=O)O)CCC2)cc1Nc1ccc(Cl)cn1` [Compound 107], the IC50 in data set [1] worked out at 400 pM. Moreover, in data set [2], the “Human Hepatocyte Remaining Percentage @ 120 min” value was 76. In data set [3], the CLint scaled at 1 µM was 14 mL/min/kg, the hepatocyte CLint at 1 µM was found to be 5.5 µL/min/1e6 cells and the half-life at 1 µM came to 4.2 h.

Regarding `CC(C)N(CC1CC1)c1ncc(C2(C(=O)O)CCC2)cc1Nc1ccc(C#N)cn1` [Compound 110], the IC50 in data set [1] came to 1000 pM. In addition, in data set [2], the “Human Hepatocyte Remaining Percentage @ 120 min” value is on record as 71. Further, in data set [3], the CLint scaled at 1 µM is 16 mL/min/kg, the hepatocyte CLint at 1 µM came to 6.4 µL/min/1e6 cells and the half-life at 1 µM stood at 3.6 h.

For `CC(C)N(CC1CC1)c1ncc(C2(C(=O)O)CCC2)cc1Nc1ccc(Cl)cn1` [Compound 111], in data set [1], the IC50 was determined as 800 pM. Moreover, in data set [2], the “Human Hepatocyte Remaining Percentage @ 120 min” value turned out to be 63. Further, in data set [3], the CLint scaled at 1 µM was 20 mL/min/kg, the hepatocyte CLint at 1 µM was determined as 7.7 µL/min/1e6 cells and the half-life at 1 µM came out at 2.98 h.

For `CCN(c1ccc(C2(C(=O)O)CCC2)cc1Nc1ccc(Cl)cn1)C1CCOCC1` [Compound 115], in data set [1], the IC50 is 100 pM. For the same compound, the “Human Hepatocyte Remaining Percentage @ 120 min” value in data set [2] was determined as 83. Moreover, in data set [3], the CLint scaled at 1 µM turned out to be 9.3 mL/min/kg, the hepatocyte CLint at 1 µM amounted to 3.6 µL/min/1e6 cells and the half-life at 1 µM amounted to 6.35 h.

With `CCOc1ncc(Nc2cc(C3(C(=O)O)CCC3)ccc2N(CC)C2CCOCC2)cn1` [Compound 117], in data set [1], the IC50 came to 900 pM. Further, the “Human Hepatocyte Remaining Percentage @ 120 min” value in data set [2] stood at 93. Further, in data set [3], the CLint scaled at 1 µM was determined as 1.7 mL/min/kg, the hepatocyte CLint at 1 µM came out at 0.7 µL/min/1e6 cells and the half-life at 1 µM worked out at 35.4 h.

`CCN(c1ccc(C2(C(=O)O)CCC2)cc1Nc1ccc(C#N)cn1)C1CCOCC1` [Compound 118]: the IC50 in data set [1] was determined as 200 pM. For the same compound, the “Human Hepatocyte Remaining Percentage @ 120 min” value in data set [2] is 85. Moreover, in data set [3], the CLint scaled at 1 µM came out at 8.5 mL/min/kg, the hepatocyte CLint at 1 µM is 3.3 µL/min/1e6 cells and the half-life at 1 µM came out at 6.93 h.

On to `CCN(c1ncc(C2(C(=O)O)CCC2)cc1Nc1ccc(Cl)cn1)C1CCOCC1` [Compound 123], for which the half-inhibitory concentration (IC50) in data set [1] was found to be 300 pM. For the same compound, the “Human Hepatocyte Remaining Percentage @ 120 min” value in data set [2] is 100. Moreover, in data set [3], the CLint scaled at 1 µM turned out to be 3.7 mL/min/kg, the hepatocyte CLint at 1 µM was 1.4 µL/min/1e6 cells and the half-life at 1 µM is 16.1 h.

As for `CCN(c1ncc(C2(C(=O)O)CCC2)cc1Nc1ccc(C#N)cc1)C1CCOCC1` [Compound 125], in data set [1], the 50% inhibitory concentration (IC50) worked out at 500 pM. Besides, the “Human Hepatocyte Remaining Percentage @ 120 min” value in data set [2] amounted to 97. Besides, in data set [3], the CLint scaled at 1 µM was found to be 2.2 mL/min/kg, the hepatocyte CLint at 1 µM is 0.9 µL/min/1e6 cells and the half-life at 1 µM was determined as 26.6 h.

For `CC(C)CN(CC(C)C)c1ccc(C(CC(=O)O)C(F)(F)F)cc1NC(=O)Nc1ccc(F)cc1F` (stereo not drawn) [Control 1, 3-(3-(3-(2,4-difluorophenyl)ureido)-4-(diisobutylamino)phenyl)-4,4,4-trifluorobutanoic acid, reference compound], the IC50 in data set [1] amounted to 800 pM. Besides, in data set [2], the “Human Hepatocyte Remaining Percentage @ 120 min” value came out at 76. Moreover, in data set [3], the CLint scaled at 1 µM worked out at 11 mL/min/kg, the hepatocyte CLint at 1 µM came to 4.1 µL/min/1e6 cells and the half-life at 1 µM came to 5.6 h.
